Reference: patent US20070232572A1, “Chemical derivatives as antitelomerase agents which bind specifically to the G-quadruplex DNA structures and their application as a specific anticancer agent” (priority 2003, published 2007)
Like-named read-outs stand apart in the source and are kept apart here.

Legend:
[1] = tested on: oligonucleotide capable of forming a G-quadruplex structure (G-rich strand, repetitive units of human telomeric DNA); test: Test of affinity No. 1 (alpha screen): inhibition of pairing of a G-quadruplex-forming oligonucleotide with its complementary strand, luminescence; format: binding; settings: 50 mM TRIS-HCl pH 7.4, 100 mM KCl, 0.1% BSA; telomeric strand vs complementary strand; read-out: Affinity/selectivity G4 Test 1 (alpha screen) Affinity IC50
Description: The principle of this test uses the activation of “acceptor” beads by an oxygen singlet emitted by “donor” beads excited by laser when the “acceptor” and “donor” beads are in proximity. This test was developed by Packard Bioscience under the name Amplified Luminescent Proximity Homogeneous Assay or ALPHA screen.
The “donor” beads are conjugated with streptavidin and the acceptor beads with an anti-digoxigenin antibody (catalog reference 6760604). A DNA strand, in this case the telomeric strand, is coupled at its 5′ end to biotin so as to be able to bind to the “donor” beads, while the complementary strand is coupled to digoxigenin so as to be able to bind to the “acceptor” beads. During the pairing of the telomeric strand with its complementary strand, the beads are placed in proximity and a luminescence signal is then emitted at a wavelength of 520-620 nm.
The oligonucleotides used in the experiments were synthesized by Perkin Elmer Life Sciences (Finland). […] The complementary strand has the sequence GGT-TTA-AAA-AAT-TTG-CCC-TAA-CCC-TAA-CCC-TAA-CCC-T. The biotin or the digoxigenin are added to the 5′ end of the oligonucleotides.
The experiments are carried out in 50 mM TRIS-HCl buffer pH 7.4 containing 100 mM KCl and 0.1% BSA.
The measurements are carried out with an Alphaquest microplate analyzer (Fusion α) from Packard Biosciences.
The experiments are carried out in 96-well plates (½ wells). An oligonucleotide stock solution at the concentration of 25 nM in the buffer described above is prepared. 10 μl of this solution are distributed into the wells. 10 μl of the test product at different concentrations, prepared in the same buffer containing 0.6% DMSO, are then added. 10 μl of buffer+0.6% DMSO are distributed into the control wells. The samples are left to incubate for 15 minutes at room temperature. After this incubation time, 10 μl of the complementary strand at the concentration of 25 nM and 20 μl of a solution containing 2 types of bead diluted beforehand to 50 mg/ml are added to the wells. The plates are incubated at room temperature for 2 hours before reading. […]

[2] = tested on: any oligonucleotide (non-G-quadruplex control sequence) with its complementary strand; test: Test of selectivity No. 1 (alpha screen): inhibition of pairing of any oligonucleotide with its complementary strand, luminescence; format: binding; settings: control oligonucleotide pairing versus G4 oligonucleotide pairing
Description: The test used is the same as that described above. Only the oligonucleotides are different, the telomeric strand being replaced by an oligonucleotide having the following sequence: G-GTT-TAA-AAT-AAT-TGA-GGC-TTA-CCG-TTA-CCG-TTA-CGG biotinylated at the 5′ end. The complementary strand has the sequence: 5′-GGT-TTA-AAA-AAT-TTG-CGG-TAA-CGG-TAA-CGG-TAA-GCC-T labeled with digoxigenin at the 5′ end. If the test product has affinity for the biotinylated DNA sequence, the pairing of the complementary strand will be prevented and the signal obtained will be minimal. In the absence of product or if the latter has no affinity for this DNA, the pairing will occur and the signal will be maximum.

[3] = target: oligonucleotide capable of forming a monomeric G-quadruplex structure; test: Test of affinity No. 2: dissociation constant of the complex with a monomeric G-quadruplex oligonucleotide, by fluorescence; format: binding; settings: read-out: Affinity/selectivity G4 Test 2 (Kd by fluorescence) Kd
Protocol: Test of affinity No. 2: Measurement of the dissociation constant, expressed in μM, of the complex between a product of the invention and an oligonucleotide, capable of forming a monomeric G-guadruplex structure, by a fluorescence method according to the experimental protocol is described below.
The titrations are carried out at 20° C. in a quartz cuvette having a useful volume of 3 ml and a cross section of 10×10 mm, placed in the thermostated compartment of the Spex Fluorolog 3 fluorimeter (Jobin-Yvon). […] To a 0.1 μM solution of compound are added increasing concentrations of nucleic acids. After an equilibration time of 3 minutes, a fluorescence emission spectrum is recorded for each point, using slits of 5 nm and an excitation wavelength of 340 nm. Each aliquot represents an additional volume of 3 microliters. The effects of dilution are corrected at the end of the experiment after integrating the emission signal. The curves representing the emission intensity as a function of the nucleic acid concentration are then analyzed and fitted with the Kaleidagraph 3.52 software for Macintosh.

[4] = tested on: any double-stranded oligonucleotide; test: Test of selectivity No. 2: dissociation constant of the complex with a double-stranded oligonucleotide, by fluorescence; format: binding; settings: DNA double strand versus oligonucleotide G4
Protocol: Test of selectivity No. 2: Measurement of the dissociation constant, expressed in μM, of the complex between a product of the invention and any double-stranded oligonucleotide, by a fluorescence method according to the experimental protocol is described below.
The titrations are carried out according to a protocol identical to that used for the titrations of the preceding test.

[5] = tested on: G-quadruplex oligonucleotide GGGTTAGGGTTAGGGTTAGGG (3.5 repeats of the human telomeric unit), FAM+DABCYL; test: Test of affinity No. 3: stabilization of the G-quadruplexes, fluorescence Tm; format: binding; settings: test product 1 μM, oligonucleotide 0.2 μM, 0.1 M LiCl, 10 mM cacodylate pH 7.6; reference Tm 44° C.
Description: Test of affinity No. 3: Measurement of the stabilization of the G-guadruplexes Tm, expressed in ° C., by a method using the formation of a complex with fluorescein of which the experimental protocol is described below.
All the oligonucleotides, modified or otherwise, were synthesized by Eurogentec S A, Seraing, Belgium. The oligonucleotide FAM+DABCYL has the catalog reference OL-0371-0802. It has the sequence: […] corresponding to 3.5 repeats of the human telomeric unit (strand rich in G). The fluorescein is attached to the 5′ end, the DABCYL to the 3′ end, by the chemical arms described by Eurogentec. An oligonucleotide FAM+TAMRA may also be used. The concentration of the samples is checked by spectrophotometry, by recording the absorbance spectrum between 220 and 700 nm and using the molar extinction coefficient provided by the supplier.
All the experiments were carried out in a 10 mM sodium cacodylate buffer pH 7.6 containing 0.1 M lithium chloride (or sodium chloride). The absence of fluorescent contamination in the buffer was checked beforehand. The fluorescent oligonucleotide is added at the final concentration of 0.2 μM.
All the measurements of fluorescence were carried out on a Spex Fluorolog DM1B or Fluoromax 3 apparatus, using an excitation line width of 1.8 nm and an emission line width of 4.5 or 5 nm. The samples are placed in a microquartz cuvette of 0.2×1 cm. […] The oligonucleotide alone was analyzed at 20, 30, 40, 50, 60, 70 and 80° C. The emission spectra are recorded using an excitation wavelength of 470 nm. The excitation spectra are recorded using either 515 or 588 nm as emission wavelength. […] A high extinction (80-90%) of the fluorescence of fluorescein at room temperature is observed, in agreement with an intramolecular folding of the oligonucleotide at 20° C. in the form of a G-quadruplex, which induces juxtaposition of its 5′ and 3′ ends which are respectively linked to fluorescein and to DABCYL. This juxtaposition causes an already-described phenomenon of extinction of fluorescence which is used for “Molecular Beacons”. […]

[6] = tested on: human telomerase (extract of A549 cells), oligonucleotide TSG4; test: Antitelomerase activity by the TRAP-G4 assay; format: biochemical; settings: formation of the TSG4-CXext band; read-out: Inhibition of telomerase IC50 (IC50 TRAP-G4)
Protocol: The extract is stored at -80° C.

[7] = 20° C., sodium cacodylate pH 7.2, 100 mM potassium chloride (K+)

IC50 [1] [nM] | Kd [3, 7] [nM] | Affinity/selectivity G4 Test 2 (Kd by fluorescence) Selectivity factor [4] | IC50 [6] [nM] | Kd ([3]; Na+) [nM] | Compound | Affinity/selectivity G4 Test 1 (alpha screen) Selectivity factor [2] | Affinity G4 Test 3 Delta Tm [5] [°C]
160 | 7 | >>100 | 450 | – | C[n+]1cccc2cc(NC(=O)c3cccc(C(=O)Nc4ccc5c(ccc[n+]5C)c4)n3)ccc21.[I-].[I-] [Example 1, bis[(1-methylquinolinio-6-yl)amido]-2,6-pyridinedicarboxylic acid diiodide] | >20 | 26
60 | 0.7 | >1000 | 300 | 3.2 | C[n+]1cccc2cc(NC(=O)c3cccc(C(=O)Nc4cc5ccccc5[n+](C)c4)n3)ccc21.[I-].[I-] [Example 9, 2-[(1-methylquinolinio-6-yl)amido]-6-[(1-methylquinolinio-3-yl)amido]-2,6-pyridinedicarboxylic acid iodide] | >50 | 21
1060 | – | – | 1500 | – | C[n+]1cccc2cc(NC(=O)c3cccc(C(=O)NCC[N+]4(C)CCCCC4)n3)ccc21.[I-].[I-] [Example 12, 2-[(1-methylquinolinio-6-yl)amido]-6-[2(-1-methylpiperidinio-1-yl)ethylamido]-2,6-pyridinedicarboxylic acid diiodide] | >3 | 12.1
